Laboratory results from PubChem BioAssay (NCI).
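Five compound concentrations were applied to cells in 96-well plates for 48 hours; endpoints were derived by simple linear interpolation of the resulting dose-response curve. TGI denotes the concentration required for complete inhibition of growth.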

Assays:
Assay in all cases: NCI anticancer screen, dose series, 48 h
786-0 renal = test system: 786-0 renal
A498 renal = test system: A498 renal
A549 NSCLC = test system: A549 NSCLC
ACHN renal = test system: ACHN renal
BT-549 breast = test system: BT-549 breast
CAKI-1 renal = test system: CAKI-1 renal
CCRF-CEM leukemia = test system: CCRF-CEM leukemia
COLO 205 colon = test system: COLO 205 colon
DU-145 prostate = test system: DU-145 prostate
EKVX NSCLC = test system: EKVX NSCLC
HCC-2998 colon = test system: HCC-2998 colon
HCT-116 colon = test system: HCT-116 colon
HCT-15 colon = test system: HCT-15 colon
HL-60(TB) leukemia = test system: HL-60(TB) leukemia
HOP-62 NSCLC = test system: HOP-62 NSCLC
HOP-92 NSCLC = test system: HOP-92 NSCLC
HS 578T breast = test system: HS 578T breast
HT29 colon = test system: HT29 colon
IGROV1 ovarian = test system: IGROV1 ovarian
K-562 leukemia = test system: K-562 leukemia
KM12 colon = test system: KM12 colon
LOX IMVI melanoma = test system: LOX IMVI melanoma
M14 melanoma = test system: M14 melanoma
MALME-3M melanoma = test system: MALME-3M melanoma
MCF7 breast = test system: MCF7 breast
MDA-MB-231 breast = test system: MDA-MB-231 breast
MDA-MB-435 = test system: MDA-MB-435
MDA-N = test system: MDA-N
MOLT-4 leukemia = test system: MOLT-4 leukemia
NCI-H226 lung = test system: NCI-H226 lung
NCI-H23 lung = test system: NCI-H23 lung
NCI-H460 lung = test system: NCI-H460 lung
NCI-H522 lung = test system: NCI-H522 lung
NCI/ADR-RES ovarian = test system: NCI/ADR-RES ovarian
OVCAR-3 ovarian = test system: OVCAR-3 ovarian
OVCAR-4 ovarian = test system: OVCAR-4 ovarian
OVCAR-5 ovarian = test system: OVCAR-5 ovarian
OVCAR-8 ovarian = test system: OVCAR-8 ovarian
PC-3 prostate = test system: PC-3 prostate
RPMI-8226 leukemia = test system: RPMI-8226 leukemia
SF-268 CNS = test system: SF-268 CNS
SF-295 CNS = test system: SF-295 CNS
SF-539 CNS = test system: SF-539 CNS
SK-MEL-2 melanoma = test system: SK-MEL-2 melanoma
SK-MEL-28 melanoma = test system: SK-MEL-28 melanoma
SK-MEL-5 melanoma = test system: SK-MEL-5 melanoma
SK-OV-3 ovarian = test system: SK-OV-3 ovarian
SN12C renal = test system: SN12C renal
SNB-19 CNS = test system: SNB-19 CNS
SNB-75 CNS = test system: SNB-75 CNS
SR leukemia = test system: SR leukemia
SW-620 colon = test system: SW-620 colon
T-47D breast = test system: T-47D breast
TK-10 renal = test system: TK-10 renal
U251 CNS = test system: U251 CNS
UACC-257 melanoma = test system: UACC-257 melanoma
UACC-62 melanoma = test system: UACC-62 melanoma
UO-31 renal = test system: UO-31 renal

Measured: TGI

COC(=O)C1CCC(=O)N1C(c1ccc2c(c1)OCO2)c1ccc2c(c1)OCO2 (stereo unspecified)
> 100 µM: 786-0 renal | A498 renal | A549 NSCLC | ACHN renal | BT-549 breast | CAKI-1 renal | CCRF-CEM leukemia | COLO 205 colon | DU-145 prostate | EKVX NSCLC | HCC-2998 colon | HCT-116 colon | HCT-15 colon | HL-60(TB) leukemia | HOP-62 NSCLC | HOP-92 NSCLC | HS 578T breast | HT29 colon | IGROV1 ovarian | K-562 leukemia | KM12 colon | LOX IMVI melanoma | M14 melanoma | MALME-3M melanoma | MCF7 breast | MDA-MB-231 breast | MDA-MB-435 | MDA-N | MOLT-4 leukemia | NCI-H226 lung | NCI-H23 lung | NCI-H460 lung | NCI-H522 lung | NCI/ADR-RES ovarian | OVCAR-3 ovarian | OVCAR-4 ovarian | OVCAR-5 ovarian | OVCAR-8 ovarian | PC-3 prostate | RPMI-8226 leukemia | SF-268 CNS | SF-295 CNS | SF-539 CNS | SK-MEL-2 melanoma | SK-MEL-28 melanoma | SK-MEL-5 melanoma | SK-OV-3 ovarian | SN12C renal | SNB-19 CNS | SNB-75 CNS | SR leukemia | SW-620 colon | T-47D breast | TK-10 renal | U251 CNS | UACC-257 melanoma | UACC-62 melanoma | UO-31 renal

Cc1n[nH]c(=O)n1N1C(=O)c2ccccc2C1=O
> 100 µM: 786-0 renal | A498 renal | A549 NSCLC | ACHN renal | BT-549 breast | CAKI-1 renal | CCRF-CEM leukemia | COLO 205 colon | DU-145 prostate | EKVX NSCLC | HCC-2998 colon | HCT-116 colon | HCT-15 colon | HOP-62 NSCLC | HOP-92 NSCLC | HS 578T breast | HT29 colon | IGROV1 ovarian | K-562 leukemia | KM12 colon | LOX IMVI melanoma | M14 melanoma | MALME-3M melanoma | MCF7 breast | MDA-MB-231 breast | MDA-MB-435 | MDA-N | MOLT-4 leukemia | NCI-H226 lung | NCI-H23 lung | NCI-H460 lung | NCI/ADR-RES ovarian | OVCAR-3 ovarian | OVCAR-4 ovarian | OVCAR-5 ovarian | OVCAR-8 ovarian | PC-3 prostate | SF-295 CNS | SF-539 CNS | SK-MEL-2 melanoma | SK-MEL-28 melanoma | SK-MEL-5 melanoma | SN12C renal | SNB-19 CNS | SNB-75 CNS | SR leukemia | SW-620 colon | T-47D breast | TK-10 renal | U251 CNS | UACC-257 melanoma | UACC-62 melanoma | UO-31 renal
